Data reported in PubChem BioAssay AID651794 (The Scripps Research Institute Molecular Screening Center, 2012).
Calls of active or inactive are those of the source. The rule behind the calls is not given here.

These molecules were tested on cell-based VP16 transactivation counterscreen, luciferase luminescence (assay: nonselective repression of VP16-driven luciferase – cell-based, luminescence, dose response, counter-screen for SRC1 inhibitor project, late-stage follow-up (AID 651794)).

Question: Which IC50 does the source give for `COc1cc([C@@H]2c3cc4c(cc3C(OC3OC5COC(C)OC5C(O)C3O)C3COC(=O)[C@@H]32)OCO4)cc(OC)c1O` (stereo partly drawn) here?
Answer: > 35.9 µM (inactive)

Question: How did the IC50 turn out when `COc1ccc(Nc2ncnc3ccc(Br)cc23)c(OC)c1` was run?
Answer: 36.2 µM (inactive)

Question: How did the IC50 turn out when `COc1ccc(NC(=O)CN(C)C(=O)C2(c3ccccc3)CCCC2)cc1` was run?
Answer: > 35.9 µM (inactive)
